Results on six compounds are retold here after patent publication US7202237B2, “Pyridylether derivatives, their preparation and use” (NeuroSearch A/S, priority 1997, dated 2007).

Where a name gives a salt, the structure may show the parent alone. Read-outs that look alike come from different tables or passages of the source.

In data set [1] the target is nAChRs comprised of α4 and β2 subunits (Rattus norvegicus, UniProt P09483+P12390). The data set can be described thus: In vitro inhibition of 3H-cytisine binding. How it is done: In Vitro Inhibition of ^3H-cytisine Binding
The predominant subtype with high affinity for nicotine is comprised of α4 and β2 subunits. nAChRs of the latter type can selectively be labelled by the nicotine agonist ^3H-cytisine.
Tissue Preparation: Preparations are performed at 0–4° C. unless otherwise indicated. […] The homogenate is centrifuged at 27,000×g for 10 min. The supernatant is discarded and the pellet is resuspended in fresh buffer and centrifuged a second time. The final pellet is resuspended in fresh buffer (35 ml per g of original tissue) and used for binding assays.
Assay: Aliquots of 500 μl homogenate are added to 25 μl of test solution and 25 μl of ^3H-cytisine (1 nM, final concentration), mixed and incubated for 90 min at 2° C. Non-specific binding is determined using (−)-nicotine (100 μM, final concentration). After incubation the samples are added 5 ml of ice-cold buffer and poured directly onto Whatman GF/C glass fibre filters under suction and immediately washed with 2×5 ml ice-cold buffer. The amount of radioactivity on the filters is determined by conventional liquid scintillation counting. Specific binding is total binding minus non-specific binding.

The target of data set [2] is T1, neuronal nicotinic receptors (α4β2 subtype of nicotinic receptors) (Rattus norvegicus, UniProt P09483+P12390).
T1 construct: The forebrain (÷cerebellum) from a male Wistar rat (150–250 g) is homogenized; from tissue; host or cells: rat forebrain (without cerebellum) membrane homogenate
The data set can be described thus: In vitro inhibition of 3H-epibatidin binding. The protocol:
In Vitro Inhibition of ^3H-epibatidin Binding
The high affinity binding site for ^3H-epibatidin is most certainly binding to the α4β2 subtype of nicotinic receptors. The identity of the low affinity site is still unknown; does it represent a second nicotinic receptor or a second site in the same receptor.
Tissue preparation: Preparations are performed at 0–4° C. unless otherwise indicated. The forebrain (÷cerebellum) from a male Wistar rat (150–250 g) is homogenized for 10–20 sec in 20 ml Tris, HCl (50 mM, pH 7.4) using an Ultra-Turrax homogenizer. The tissue suspension is centrifuged at 27,000×g for 10 min. The supernatant is discarded and the pellet is washed three times by centrifugation at 27,000×g for 10 min in 20 ml fresh buffer, and the final pellet is resuspended in fresh buffer (400 ml per g of original tissue) and used for binding assays.
Assay: Aliquots of 2.0 ml homogenate are added to 0.100 ml of test solution and 0.100 ml of ^3H-epibatidin (0.3 nM, final concentration), mixed and incubated for 60 min at room temperature. Non-specific binding is determined using (−)-nicotine (30 μM, final concentration). After incubation the samples are poured directly onto Whatman GF/C glass fibre filters (presoaked in 0.1% PEI for at least 20 min) under suction and immediately washed with 2×5 ml ice-cold buffer. The amount of radioactivity on the filters is determined by conventional liquid scintillation counting. Specific binding is total binding minus non-specific binding.

The target in data set [3] is nAChR formed by the α7 subunit isoform (Rattus norvegicus, UniProt Q05941). The data set can be described thus: biochemical. The data set is classed as binding.
The conditions of data set [4]: times that of morphine; cited from earlier work.
[5] abbreviates: rat cerebral cortex homogenate, 1 nM 3H-cytisine, read-out: 3H-cytisine IC50.
Where [6] appears, read: rat forebrain homogenate, 0.3 nM 3H-epibatidin, read-out: 3H-epibatidin IC50.

nAChR formed by the α7 subunit isoform, sequence (Q05941 23-502): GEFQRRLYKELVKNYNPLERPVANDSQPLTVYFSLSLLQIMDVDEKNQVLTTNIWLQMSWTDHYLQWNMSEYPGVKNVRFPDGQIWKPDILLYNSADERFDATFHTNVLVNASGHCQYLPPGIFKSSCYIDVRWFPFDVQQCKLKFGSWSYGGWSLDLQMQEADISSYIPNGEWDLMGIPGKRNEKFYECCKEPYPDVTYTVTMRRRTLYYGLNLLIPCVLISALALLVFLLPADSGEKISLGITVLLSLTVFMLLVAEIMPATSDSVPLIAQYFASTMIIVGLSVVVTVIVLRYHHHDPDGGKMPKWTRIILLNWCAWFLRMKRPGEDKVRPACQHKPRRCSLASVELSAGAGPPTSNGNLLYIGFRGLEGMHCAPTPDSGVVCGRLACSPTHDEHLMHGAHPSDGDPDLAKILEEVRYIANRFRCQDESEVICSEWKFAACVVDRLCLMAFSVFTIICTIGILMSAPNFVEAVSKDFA
T1 sequence (P09483 31-630): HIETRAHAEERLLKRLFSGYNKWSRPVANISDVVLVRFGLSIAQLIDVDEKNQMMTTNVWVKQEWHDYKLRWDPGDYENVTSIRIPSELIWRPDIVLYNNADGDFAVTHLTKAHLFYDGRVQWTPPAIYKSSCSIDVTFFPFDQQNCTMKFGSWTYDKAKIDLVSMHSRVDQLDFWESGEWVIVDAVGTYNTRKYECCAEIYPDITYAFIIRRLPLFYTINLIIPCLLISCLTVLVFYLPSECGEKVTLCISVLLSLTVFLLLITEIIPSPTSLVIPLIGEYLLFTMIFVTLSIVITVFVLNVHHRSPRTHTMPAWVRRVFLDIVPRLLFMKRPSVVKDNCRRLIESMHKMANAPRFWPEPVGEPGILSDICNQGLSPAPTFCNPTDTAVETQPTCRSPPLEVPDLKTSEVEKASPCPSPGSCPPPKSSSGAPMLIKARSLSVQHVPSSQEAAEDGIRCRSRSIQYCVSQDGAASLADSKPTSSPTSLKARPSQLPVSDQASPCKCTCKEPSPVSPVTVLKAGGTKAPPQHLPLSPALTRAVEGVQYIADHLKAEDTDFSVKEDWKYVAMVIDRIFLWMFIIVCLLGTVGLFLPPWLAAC
T1 sequence (P12390 25-500): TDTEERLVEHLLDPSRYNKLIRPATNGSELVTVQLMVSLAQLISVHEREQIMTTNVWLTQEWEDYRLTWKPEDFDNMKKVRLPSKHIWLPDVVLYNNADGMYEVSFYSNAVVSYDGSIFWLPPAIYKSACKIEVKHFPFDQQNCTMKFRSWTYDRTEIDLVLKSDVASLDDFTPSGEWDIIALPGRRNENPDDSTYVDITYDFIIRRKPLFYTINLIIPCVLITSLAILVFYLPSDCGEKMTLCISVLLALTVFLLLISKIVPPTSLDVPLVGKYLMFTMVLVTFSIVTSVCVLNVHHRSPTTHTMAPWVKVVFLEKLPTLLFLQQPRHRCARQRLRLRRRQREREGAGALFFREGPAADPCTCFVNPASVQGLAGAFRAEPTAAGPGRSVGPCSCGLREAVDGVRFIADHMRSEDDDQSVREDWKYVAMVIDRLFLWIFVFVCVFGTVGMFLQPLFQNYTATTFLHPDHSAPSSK
nAChRs comprised of α4 and β2 subunits, sequence (P09483 31-630): as the sequence (P09483 31-630) above
nAChRs comprised of α4 and β2 subunits, sequence (P12390 25-500): as the sequence (P12390 25-500) above

`c1cncc(OC2CCCNCC2)c1` (racemic) (as salt: fumaric acid salt) [Compound 7b, (±)-4-Oxy-(3-pyridyl)-homopiperidine fumaric acid salt] came in with a melting point of 117 to 119 °C.

As to `CN1CCC(Oc2cccnc2)C1` (racemic) [Compound 1a, (±)-1-Methyl-3-oxy-(3-pyridyl)-pyrrolidine], the IC50 came out at 100 nM in data set [1] (setting [5]), 700 nM in data set [2] (setting [6]) and 16000 nM in data set [3].

`c1cncc(OC2CCNC2)c1` (racemic) [Compound 1b, (±)-3-Oxy-(3-pyridyl)-pyrrolidine]: the concentration for half-maximal inhibition (IC50) in data set [1] was 70 nM; in data set [2] it was 410 nM; in data set [3] (read-out: 3H-α-bungarotoxin IC50), over 30000 nM.

As to `CN1CCCC(Oc2cccnc2)C1` (racemic) [Compound 3a, (±)-1-Methyl-3-oxy-(3-pyridyl)-piperidine], the IC50 was determined as 190 nM in data set [1] (setting [5]), 720 nM in data set [2] (setting [6]) and 19000 nM in data set [3].

As for `c1cncc(OC2CCCNCC2)c1` (racemic) [Compound 7b, (±)-4-Oxy-(3-pyridyl)-homopiperidine fumaric acid salt], the half-maximal inhibitory concentration (IC50) came out at 60 nM in data set [1] (setting [5]), 300 nM in data set [2] (setting [6]) and 20000 nM in data set [3].

`Clc1ccc(C2CC3CCC2N3)cn1` (centres unmarked) [Epibatidine]: the “analgesic potency relative to morphine” value in data set [4] is about 500 times.

Usually melting point stands for the temperature, or range, at which the solid turns liquid. By IC50 is commonly meant the concentration at which inhibition is half-maximal.
